Among the data in patent US8901124B2, “Pyridazine amide compounds useful as SYK inhibitors” (priority 2012, dated 2014) are IC50 values, retold here.

The structures appear in SMILES notation.

The experiment has as its system HUMAN WHOLE BLOOD. Briefly: IC50 in human whole blood. It is filed as cell-based.
Regarding `CC(C)(C#N)c1cccc(Nc2cc(N[C@@H]3CCCC[C@@H]3N)nnc2C(N)=O)n1` [Compound I-36, 6-((1R,2S)-2-aminocyclohexylamino)-4-(6-(2-cyanopropan-2-yl)pyridin-2-ylamino)pyridazine-3-carboxamide], half-maximal inhibition (IC50) was put at 2.09 µM.

As for `CC(C)(C)c1cccc(Nc2cc(N[C@@H]3CCOC[C@@H]3N)nnc2C(N)=O)n1` [Compound I-29, 6-((3R,4R)-3-aminotetrahydro-2H-pyran-4-ylamino)-4-(6-tert-butylpyridin-2-ylamino)pyridazine-3-carboxamide], the IC50 (usually the concentration needed to halve the response being measured) amounted to 1.8 µM.

`CCCc1nc(Nc2cc(N[C@@H]3CCOC[C@@H]3N)nnc2C(N)=O)ccc1OC` [Compound I-40, 6-((3R,4R)-3-aminotetrahydro-2H-pyran-4-ylamino)-4-(5-methoxy-6-propylpyridin-2-ylamino)pyridazine-3-carboxamide] had an IC50 of 0.332 µM.

Take `CCCc1cc(C)cc(Nc2cc(N[C@@H]3CCOC[C@@H]3N)nnc2C(N)=O)n1` [Compound I-39, 6-((3R,4R)-3-aminotetrahydro-2H-pyran-4-ylamino)-4-(4-methyl-6-propylpyridin-2-ylamino)pyridazine-3-carboxamide]: the IC50 turned out to be 0.818 µM.

`Cc1cc(Nc2cc(N[C@@H]3CCCC[C@@H]3N)nnc2C(N)=O)nc(C(C)C)c1` [Compound I-35, 6-((1R,2S)-2-aminocyclohexylamino)-4-(6-isopropyl-4-methylpyridin-2-ylamino)pyridazine-3-carboxamide]: the IC50 amounted to 0.923 µM.

In turn, `CC(C)(O)c1cccc(Nc2cc(N[C@@H]3CCCC[C@@H]3N)nnc2C(N)=O)n1` [Compound I-37, 6-((1R,2S)-2-aminocyclohexylamino)-4-(6-(2-hydroxypropan-2-yl)pyridin-2-ylamino)pyridazine-3-carboxamide] came in with an IC50 of 2.34 µM.

In turn, `CCOc1cccc(Nc2cc(N[C@@H]3CCCC[C@@H]3N)nnc2C(N)=O)n1` [Compound I-30, 6-((1R,2S)-2-aminocyclohexylamino)-4-(6-ethoxypyridin-2-ylamino)pyridazine-3-carboxamide] yielded a half-maximal inhibitory concentration (IC50) of 0.487 µM. This IC50 lies about 4.8-fold lower than the previous one.

For the compound `COc1nc(Nc2cc(N[C@@H]3CCOC[C@@H]3N)nnc2C(N)=O)ccc1C(C)C` [Compound I-42, 6-((3R,4R)-3-aminotetrahydro-2H-pyran-4-ylamino)-4-(5-isopropyl-6-methoxypyridin-2-ylamino)pyridazine-3-carboxamide], the IC50 came out at 0.909 µM.

As to `Cn1cnc2c(Nc3cc(N[C@@H]4CCCC[C@@H]4N)nnc3C(N)=O)cccc21` [Compound I-22, 6-((1R,2S)-2-aminocyclohexylamino)-4-(1-methyl-1H-benzo[d]imidazol-4-ylamino)pyridazine-3-carboxamide], the midpoint of inhibition, the IC50, lay at 21.5 µM.

Compound `CCCc1cc(C)cc(Nc2cc(N[C@@H]3CCCC[C@@H]3N)nnc2C(N)=O)n1` [Compound I-38, 6-((1R,2S)-2-aminocyclohexylamino)-4-(4-methyl-6-propylpyridin-2-ylamino)pyridazine-3-carboxamide] yielded an IC50 of 0.642 µM.

The compound `CC(C)Oc1cccc(Nc2cc(N[C@@H]3CCOC[C@@H]3N)nnc2C(N)=O)n1` [Compound I-43, 6-((3R,4R)-3-aminotetrahydro-2H-pyran-4-ylamino)-4-(6-isopropoxypyridin-2-ylamino)pyridazine-3-carboxamide] gave an IC50 of 0.372 µM.

For `NC(=O)c1nnc(N[C@@H]2CCCC[C@@H]2N)cc1Nc1cccc(-n2cccn2)n1` [Compound I-33, 4-(6-(1H-pyrazol-1-yl)pyridin-2-ylamino)-6-((1R,2S)-2-aminocyclohexylamino)pyridazine-3-carboxamide], the IC50 came out at 1.42 µM.

In turn, `NC(=O)c1nnc(N[C@@H]2CCCC[C@@H]2N)cc1Nc1cccc(-n2nccn2)n1` [Compound I-23, 4-(6-(2H-1,2,3-triazol-2-yl)pyridin-2-ylamino)-6-((1R,2S)-2-aminocyclohexylamino)pyridazine-3-carboxamide] had an IC50 of 0.81 µM. Compared with the last compound, the IC50 is about 1.8-fold lower.

Regarding `Cc1ccc(Nc2cc(N[C@@H]3CCOC[C@@H]3N)nnc2C(N)=O)nc1C(C)C` [Compound I-27, 6-((3R,4R)-3-Amino-tetrahydro-pyran-4-ylamino)-4-(6-isopropyl-5-methyl-pyridin-2-ylamino)-pyridazine-3-carboxylic acid amide], the IC50 is 0.313 µM.
